Measurements from US4514330A, “Carbon-7-substituted atinomycin D analogue” (Trustees of Boston University, priority 1983, dated 1985).
Read-outs that look alike come from different tables or passages of the source.

Legend:
P-388 leukemia = assay: In vivo antitumor activity against P-388 lymphocytic leukemia in CDF1 mice; settings: for % ILS (percent increase in life span) / MST (median survival time) / cure (over 55 day survivors): days 1, 5, 9; for minimal effective dose: Mus musculus, P388, ip, read-out: MED (minimum effective dose, 40% increase in life span over control); for fold increase in survival time over AMD (1b) or 7-hydroxyactinomycin D (2b): optimal nontoxic dose levels
Protocol: Studies on in vivo activity of AMD and AMD analogues were carried out with P-388 lymphocytic leukemia in CDF1 hybrid mice. The drugs were administered either daily for 4 successive days (qd 1-4) or on days 1, 5 and 9 (q4d 1, 5, 9) beginning 1 day after tumor implantation.
^a Male CDF1 (18-23 g) mice were inoculated intraperitoneally
(ip) with 10^6 P388 cells on day 0. Drugs were administered, also ip,
in 10% dimethyl sulfoxidesaline on days 1, 5 and 9. Test solutions were
kept at 0-4° C., protected from light, and the stability and
homogeneity were checked periodically by TLC and HPLC.
^b MST = median survival time.
^c % ILS = percent increase in life span.
^d Over 55 day survivors. Average of three experiments. The
^a Drugs administed ip once daily either for 4 successive days (qd
1-4) or on days 1, 5 and 9 (q4d 1, 5 9), starting 1 day after tumor
^b MED (minimum effective dose) is the dose (milligrams/kilogram)
providing an increase in life span of 40% over control in P388

normal CDF1 male mice = assay: Maximum tolerated dose (LD10) in normal, tumor-free CDF1 male mice; type: in vivo; settings: for MTD (maximum tolerated dose, lethal for 10% of normal mice; = LD10): deaths during 21 days; for MTD dose as multiple of the MTD dose for AMD: q4d 1, 5, 9 schedule; for fold less toxic than AMD: qd 1-4 schedule
Protocol: ^c MTD (maximum tolerated dose) is the lethal dose
(milligrams/kilogram) for 10% normal CDF1 male mice (18-23 g);
were calculated from a plot of log dose vs. percent mortality. Average of
two to three experiments.
Biological Experiments. Determination of LD10 Values. Tumor-free CDF1 male mice weighing 18-23 g were given a broad range of doses of drugs in 10% dimethyl sulfoxide-saline on either days 1, 5 and 9 or on 4 successive days. Drugs were administered intraperitoneally (ip).
The maximum tolerated doses of AMD and analogues that caused deaths in only 10% of the tested animals in 21 days were recorded as MTD. The results are an average of two experiments in each. The MTD values obtained following schedules q4d 1, 5, 9 (three injections) and qd 1-4 (four injections) are recorded in Table IV. These doses are the same as LD10 (lethal dose of 10% of tumor-free animals in 21 days).

DNA = assay: DNA-binding mode, covalent and noncovalent (statements)
[1] = three injections ip, q4d 1, 5, 9

Compound: Cc1c2oc3c(C)c(OCC(O)CO)cc(C(=O)N[C@@H]4C(=O)N[C@H](C(C)C)C(=O)N5CCC[C@H]5C(=O)N(C)CC(=O)N(C)[C@@H](C(C)C)C(=O)O[C@@H]4C)c3nc-2c(C(=O)N[C@@H]2C(=O)N[C@H](C(C)C)C(=O)N3CCC[C@H]3C(=O)N(C)CC(=O)N(C)[C@@H](C(C)C)C(=O)O[C@@H]2C)c(N)c1=O (stereo partly drawn) [Compound 4b, 7-(2,3-Dihydroxypropoxy) actinomycin D]
- % ILS (percent increase in life span) (P-388 leukemia; 0.15 mg/kg ip): 45%
- MST (median survival time) (P-388 leukemia; 0.15 mg/kg ip): 16 days
- cure (over 55 day survivors) (P-388 leukemia; 0.15 mg/kg ip): 0/7
- % ILS (percent increase in life span) (P-388 leukemia; 0.30 mg/kg ip): 82%
- MST (median survival time) (P-388 leukemia; 0.30 mg/kg ip): 20 days
- cure (over 55 day survivors) (P-388 leukemia; 0.30 mg/kg ip): 2/7
- % ILS (percent increase in life span) (P-388 leukemia; 0.60 mg/kg ip): 136%
- MST (median survival time) (P-388 leukemia; 0.60 mg/kg ip): 25 days
- cure (over 55 day survivors) (P-388 leukemia; 0.60 mg/kg ip): 1/7
- % ILS (percent increase in life span) (P-388 leukemia; 1.20 mg/kg ip): 191%
- MST (median survival time) (P-388 leukemia; 1.20 mg/kg ip): 32 days
- cure (over 55 day survivors) (P-388 leukemia; 1.20 mg/kg ip): 0/7
- % ILS (percent increase in life span) (P-388 leukemia; 1.80 mg/kg ip): 36%
- MST (median survival time) (P-388 leukemia; 1.80 mg/kg ip): 15 days
- cure (over 55 day survivors) (P-388 leukemia; 1.80 mg/kg ip): 0/7
- minimal effective dose (P-388 leukemia; four injections ip, qd 1-4): 0.125 mg/kg
- minimal effective dose (P-388 leukemia; [1]): 0.15 mg/kg
- therapeutic index: MTD/MED (P-388 leukemia; four injections ip, qd 1-4): 6
- fold increase in survival time over AMD (1b) or 7-hydroxyactinomycin D (2b) (P-388 leukemia; ip, q4d 1, 5, 9): ~1.5 fold
- therapeutic index: MTD/MED (P-388 leukemia; [1]): 12
- MTD (maximum tolerated dose, lethal for 10% of normal mice; = LD10) (normal CDF1 male mice; four injections ip, qd 1-4): 1.4 milligrams/kilogram
- MTD dose as multiple of the MTD dose for AMD (normal CDF1 male mice): 7 fold
- fold less toxic than AMD (normal CDF1 male mice): 9 fold
- MTD (maximum tolerated dose, lethal for 10% of normal mice; = LD10) (normal CDF1 male mice; [1]): 1.8 milligrams/kilogram

Compound: Cc1c2oc3c(C)c(OCC4CO4)cc(C(=O)N[C@@H]4C(=O)N[C@H](C(C)C)C(=O)N5CCC[C@H]5C(=O)N(C)CC(=O)N(C)[C@@H](C(C)C)C(=O)O[C@@H]4C)c3nc-2c(C(=O)N[C@@H]2C(=O)N[C@H](C(C)C)C(=O)N3CCC[C@H]3C(=O)N(C)CC(=O)N(C)[C@@H](C(C)C)C(=O)O[C@@H]2C)c(N)c1=O (stereo partly drawn) [Compound 3b, 7-(2,3-Epoxypropoxy)actinomycin D]
- % ILS (percent increase in life span) (P-388 leukemia; 0.15 mg/kg ip): 164%
- MST (median survival time) (P-388 leukemia; 0.15 mg/kg ip): 29 days
- cure (over 55 day survivors) (P-388 leukemia; 0.15 mg/kg ip): 0/7
- % ILS (percent increase in life span) (P-388 leukemia; 0.30 mg/kg ip): 263%
- MST (median survival time) (P-388 leukemia; 0.30 mg/kg ip): 40 days
- cure (over 55 day survivors) (P-388 leukemia; 0.30 mg/kg ip): 1/7
- % ILS (percent increase in life span) (P-388 leukemia; 0.60 mg/kg ip): 255%
- MST (median survival time) (P-388 leukemia; 0.60 mg/kg ip): 41 days
- cure (over 55 day survivors) (P-388 leukemia; 0.60 mg/kg ip): 1/7
- % ILS (percent increase in life span) (P-388 leukemia; 1.20 mg/kg ip): 291%
- MST (median survival time) (P-388 leukemia; 1.20 mg/kg ip): 43 days
- cure (over 55 day survivors) (P-388 leukemia; 1.20 mg/kg ip): 3/7
- % ILS (percent increase in life span) (P-388 leukemia; 1.80 mg/kg ip): 300%
- MST (median survival time) (P-388 leukemia; 1.80 mg/kg ip): 44 days
- cure (over 55 day survivors) (P-388 leukemia; 1.80 mg/kg ip): 3/7
- % ILS (percent increase in life span) (P-388 leukemia; 2.40 mg/kg ip): 136%
- MST (median survival time) (P-388 leukemia; 2.40 mg/kg ip): 26 days
- cure (over 55 day survivors) (P-388 leukemia; 2.40 mg/kg ip): 2/7
- minimal effective dose (P-388 leukemia; four injections ip, qd 1-4): 0.0375 mg/kg
- minimal effective dose (P-388 leukemia; [1]): 0.05 mg/kg
- therapeutic index: MTD/MED (P-388 leukemia; four injections ip, qd 1-4): 43
- breadth of dose-response curve (P-388 leukemia; ip, q4d 1, 5, 9): very broad
- overall activity relative to AMD (P-388 leukemia; ip, q4d 1, 5, 9): superior to AMD
- cure (tumor free), animals out of seven treated (P-388 leukemia; optimal dose ranges of 1.2 and 1.8 mg/kg, ip, q4d 1, 5, 9): three
- fold increase in survival time over AMD (1b) or 7-hydroxyactinomycin D (2b) (P-388 leukemia; ip, q4d 1, 5, 9): ~2.5 fold
- therapeutic index: MTD/MED (P-388 leukemia; [1]): 72
- long-term survivors (P-388 leukemia; throughout the dose range, ip, q4d 1, 5, 9): long-term survivors throughout this dose range
- MTD (maximum tolerated dose, lethal for 10% of normal mice; = LD10) (normal CDF1 male mice; four injections ip, qd 1-4): 1.6 milligrams/kilogram
- MTD dose as multiple of the MTD dose for AMD (normal CDF1 male mice): 14 fold
- fold less toxic than AMD (normal CDF1 male mice): 11 fold
- MTD (maximum tolerated dose, lethal for 10% of normal mice; = LD10) (normal CDF1 male mice; [1]): 3.6 milligrams/kilogram
- covalent binding to DNA (DNA; 37° C. or higher, or longer incubation (~20 h)): can bind covalently to DNA
- DNA-binding property relative to AMD (DNA; ambient temperature): closely parallel to AMD
